In this test the target is T1, 5-HT2C receptor (Homo sapiens, UniProt P28335).
T1 sequence (P28335 33-458): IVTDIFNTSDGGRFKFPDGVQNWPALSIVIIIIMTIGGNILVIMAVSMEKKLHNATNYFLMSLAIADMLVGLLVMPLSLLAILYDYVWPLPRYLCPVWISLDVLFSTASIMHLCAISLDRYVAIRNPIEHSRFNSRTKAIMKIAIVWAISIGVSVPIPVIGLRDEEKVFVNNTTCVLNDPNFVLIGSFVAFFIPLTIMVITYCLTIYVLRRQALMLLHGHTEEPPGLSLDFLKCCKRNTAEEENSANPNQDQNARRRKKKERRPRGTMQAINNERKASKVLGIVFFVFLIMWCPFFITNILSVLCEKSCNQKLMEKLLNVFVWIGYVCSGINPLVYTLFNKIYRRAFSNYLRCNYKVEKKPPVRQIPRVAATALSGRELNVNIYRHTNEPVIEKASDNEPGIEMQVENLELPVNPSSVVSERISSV
Briefly: […]DOI radioligand competition binding on HEK-h5HT2C cell homogenate.

Compound `CC(C)N(CCc1c[nH]c2ccccc12)C(C)C` [DiPT] registered a Ki of 290 ± 110 nM.

What is called Ki is the dissociation constant of the complex between target and ligand, obtained from inhibition or displacement. High values mean weaker binding, low ones tighter binding.

The values are drawn from PMC4282596 (Psychopharmacology, 2014).
